The record followed here is patent publication US20120196748A1, “PESTICIDAL COMPOSITION” (SYNGENTA LIMITED, priority 2009, published 2012).

Data set [1] is described as follows: Soil mobility of herbicides, uptake by concentric PDMS rings. Format: physicochemical. The conditions noted are these: 7 days after application, sandy loam soil, moisture content 26.3%. As for the experimental part:
The soil mobility of various herbicides were examined in sandy loam soil with a moisture content of 26.3%. Three concentric PDMS (polydimethyl siloxane) rings having diameters of 2, 4 and 6 cm, respectively were placed in the soil at three different depths at 0.5 cm apart. 1 ml of a herbicide solution is injected in the center of the rings. The uptake of the herbicide by the rings were analysed 7 days after herbicide application.

Another data set relates to weeds. In words: Field weed control by clomazone-treated wheat seeds. Type of data set: in vivo. The following applies: field at Möhlin, 64 days after planting.
Setting [2] is: uptake by PDMS ring of 2 cm diameter.
The mark [3] stands for this setting: uptake by PDMS ring of 4 cm diameter.

Experimental for weeds: Two different types of wheat seeds were used, i.e. Match and Steme. The treated wheat seeds were sown in the field (at Möhlin in Swtzerland). 64 days after planting the control of weeds was analysed.

Regarding `CC1(C)CON(Cc2ccccc2Cl)C1=O` [Clomazone], the “Percentage of totally applied herbicide (%)” value (“Percentage … (%)” below) in data set [1] (setting [2]) worked out at 0.36%. For the same compound, the “Weed control (%)” value in the data set on weeds (wheat seed type Match) and with weeds (wheat seed type Steme) was 95% in each case.
Consider `CCOCN(C(=O)CCl)c1c(C)cccc1CC` [Acetochlor], for which, in data set [1] (setting [2]), the “Percentage … (%)” value is given as 0.14%.
Same read-out and setting: under `CCc1cccc(C)c1N(C(=O)CCl)[C@@H](C)COC` [S-metalochlor] stands 0.11%.
For `CCCN(CCC)C(=O)SCC` [EPTC], the “Percentage … (%)” value in data set [1] (setting [2]) stood at 12.70%; in data set [1] (setting [3]) it was 5.56%; in data set [1] (uptake by PDMS ring of 6 cm diameter), 0.97%.
For the compound `CCCN(CCC)c1c([N+](=O)[O-])cc(C(F)(F)F)cc1[N+](=O)[O-]` [Trifluralin], the “Percentage … (%)” value in data set [1] (setting [2]) is given as 0.62%; in data set [1] (setting [3]) it was 0.02%.
